{"source": "paper PMC3269340", "about": "“Pharmacokinetics of memantine in rats and mice” (PLoS Currents, 2012)", "experiment": "Pharmacokinetics in rats after single iv, po or sc dose (plasma and brain)", "type": "in vivo, Sprague-Dawley rats", "settings": "for half-life / AUC(0-inf) / Cmax: plasma", "description": "Sprague Dawley (SD) rats (138 adult males), and C57Bl/6 mice (140 adult males), were obtained (Hilltop Laboratories, Scottsdale, PA); 123 per species were used in the study and the remainder provided blank matrix. Animals were individually identified by tail markings and were acclimated to the study environment for 16-21 days prior to dose administration. Animals were individually housed in suspended wire caging, and were kept on a 12h/12h light/dark cycle except when interrupted for study procedures. Average room temperature was regulated in the range 18 to 29°C, average relative humidity of 30-70%, and an average daily airflow >10 fresh air changes/h. Animals were fed LabDiet^Ò Certified Rodent Diet 5002 Meal food ad libitum, except during fasting prior to dose administration, and had access to water ad libitum.\n[…] […] The concentration of memantine for the same dose level administered to mice was 0.2 mg eq./mL, and the dose volume was 5 mL/kg. The concentration of memantine in the 10mg eq./kg po and sc solutions was 5 mg eq./mL and the dose volume was 2 mL/kg for both rats and mice.\nDetails of the dose administration, body weights, clinical observations, plasma and brain sample collection and preparation are not shown in this report but are available upon request. Blood (for preparation of plasma) and brain samples were collected at 0.08, 0.25, 0.5, 1, 2, 4, 8, and 24h post-dose.\nSince all time points were terminal, mean memantine concentrations per time point were used to calculate the composite PK parameters by non-compartmental analysis using WinNonlin program, version 5.2 (Pharsight Corp., Mountain View, California). A model was selected based on the vascular (iv bolus) or extravascular (po or sc) routes of administration. For the iv route, plasma concentration at time zero was back extrapolated from the first two observed post dose plasma concentrations. For the po and sc routes, concentration at time zero was assumed to be zero. Plasma and tissue concentrations below the limit of quantitation were treated as absent samples for the purpose of calculating the mean plasma concentration values or for calculating PK parameters.\nThe area under the plasma concentration versus time curve (AUC) was calculated using the linear trapezoidal method (linear interpolation). When appropriate, the terminal elimination phase of the PK profile was estimated based on the best fit (r^2) using at least the last three observed concentrations. PK parameters describing the systemic exposure of memantine in plasma and brain were estimated from observed (rather than predicted) plasma/brain concentrations, the dosing regimen, the AUC, and the terminal elimination phase rate constant (kel) for each group. The portion of the AUC from the last measurable concentration to infinity was estimated from the equation Ct/kel, where Ct represents the last measurable concentration. The extrapolated portion of the AUC was used for the determination of AUC0-∞. The percent bioavailability (%F) was calculated by dividing the dose normalized extravascular plasma AUC0-∞ by the dose normalized iv plasma AUC0-∞ times 100. The bioavailability calculations assumed concentrations were in the linear range.\nConcentrations of memantine in rat and mouse plasma and brain were determined using an LC-MS/MS assay developed at ABC Laboratories.", "key": {"[1]": {"settings": "rat brain, po dose increase from 1.22 to 10 mg/kg"}, "[2]": {"settings": "rat plasma, po dose increase from 1.22 to 10 mg/kg"}}, "note": "Read-outs that look alike come from different tables or passages of the source.", "data": [{"compound": "CC12CC3CC(C)(C1)CC(N)(C3)C2", "note": "[memantine]", "values": [{"measurement": "half-life", "setting": "male, Sprague-Dawley, rat, iv, 1 mg/kg, rat, printed under 1 mg/kg (iv), cross-species summary, read-out: t 1/2 (converted)", "value": 4, "unit": "h"}, {"measurement": "AUC(0-inf)", "setting": "male, Sprague-Dawley, rat, iv, 1.22 mg/kg, rat plasma, IV 1.22 mg eq./kg, read-out: AUC(0-∞)", "value": 1.64, "unit": "µM·h"}, {"measurement": "half-life", "setting": "male, Sprague-Dawley, rat, iv, 1.22 mg/kg, rat plasma, IV 1.22 mg eq./kg, read-out: Half-life (t½) (converted)", "value": 1.9, "unit": "h"}, {"measurement": "AUC(0-inf)", "setting": "male, Sprague-Dawley, rat, po, 1 mg/kg, rat, dose 1 mg/kg, single dose in solution (oral values of Table 1), read-out: AUC inf", "value": 0.6, "unit": "µM·h"}, {"measurement": "Cmax", "setting": "male, Sprague-Dawley, rat, po, 1 mg/kg, rat, dose 1 mg/kg, single dose in solution, read-out: C max", "value": 100, "unit": "nM"}, {"measurement": "AUC(0-inf)", "setting": "male, Sprague-Dawley, rat, po, 1.22 mg/kg, rat plasma, PO 1.22 mg eq./kg, read-out: AUC(0-∞)", "value": 0.594, "unit": "µM·h"}, {"measurement": "half-life", "setting": "male, Sprague-Dawley, rat, po, 1.22 mg/kg, rat plasma, PO 1.22 mg eq./kg, read-out: Half-life (t½) (converted)", "value": 2.23, "unit": "h"}, {"measurement": "Cmax", "setting": "male, Sprague-Dawley, rat, po, 1.22 mg/kg, rat plasma, PO 1.22 mg eq./kg, read-out: Observed Cmax", "value": 109, "unit": "nM"}, {"measurement": "AUC(0-inf)", "setting": "male, Sprague-Dawley, rat, po, 10 mg/kg, rat plasma, PO 10.0 mg eq./kg, read-out: AUC(0-∞)", "value": 11.4, "unit": "µM·h"}, {"measurement": "half-life", "setting": "male, Sprague-Dawley, rat, po, 10 mg/kg, rat plasma, PO 10.0 mg eq./kg, read-out: Half-life (t½) (converted)", "value": 3.92, "unit": "h"}, {"measurement": "Cmax", "setting": "male, Sprague-Dawley, rat, po, 10 mg/kg, rat plasma, PO 10.0 mg eq./kg, read-out: Observed Cmax", "value": 3700, "unit": "nM"}, {"measurement": "AUC(0-inf)", "setting": "male, Sprague-Dawley, rat, po, 10 mg/kg, rat, dose 10 mg/kg, single dose in solution (oral values of Table 1), read-out: AUC inf", "value": 11.4, "unit": "µM·h"}, {"measurement": "Cmax", "setting": "male, Sprague-Dawley, rat, po, 10 mg/kg, rat, dose 10 mg/kg, single dose in solution, read-out: C max", "value": 3700, "unit": "nM"}, {"measurement": "AUC(0-inf)", "setting": "male, Sprague-Dawley, rat, sc, 1 mg/kg, rat plasma, SC 1.0 mg eq./kg, read-out: AUC(0-∞)", "value": 1.69, "unit": "µM·h"}, {"measurement": "half-life", "setting": "male, Sprague-Dawley, rat, sc, 1 mg/kg, rat plasma, SC 1.0 mg eq./kg, read-out: Half-life (t½) (converted)", "value": 1.81, "unit": "h"}, {"measurement": "Cmax", "setting": "male, Sprague-Dawley, rat, sc, 1 mg/kg, rat plasma, SC 1.0 mg eq./kg, read-out: Observed Cmax", "value": 985, "unit": "nM"}, {"measurement": "AUC(0-inf)", "setting": "male, Sprague-Dawley, rat, sc, 10 mg/kg, rat plasma, SC 10.0 mg eq./kg, read-out: AUC(0-∞)", "value": 25.8, "unit": "µM·h"}, {"measurement": "half-life", "setting": "male, Sprague-Dawley, rat, sc, 10 mg/kg, rat plasma, SC 10.0 mg eq./kg, read-out: Half-life (t½) (converted)", "value": 2.59, "unit": "h"}, {"measurement": "Cmax", "setting": "male, Sprague-Dawley, rat, sc, 10 mg/kg, rat plasma, SC 10.0 mg eq./kg, read-out: Observed Cmax", "value": 6190, "unit": "nM"}, {"measurement": "Tmax", "setting": "male, Sprague-Dawley, subcutaneous, rat plasma, po and sc, all dose levels, read-out: Tmax after extravascular administration", "value": "0.5 to 1", "unit": "h"}, {"measurement": "Cmax/Cmin ratios", "setting": "rat", "value": "> 100"}, {"measurement": "total systemic clearance, times higher than GFR", "setting": "rat", "value": "~ 13 fold"}, {"measurement": "AUCnorm", "setting": "rat brain, IV 1.22 mg eq./kg", "value": "39040 (nM hr/kg) /(kg/mg)"}, {"measurement": "Observed CmaxNorm", "setting": "rat brain, IV 1.22 mg eq./kg", "value": "9003 nM/ (mg/kg)"}, {"measurement": "AUCnorm", "setting": "rat brain, PO 1.22 mg eq./kg", "value": "17310 (nM hr/kg) /(kg/mg)"}, {"measurement": "Observed CmaxNorm", "setting": "rat brain, PO 1.22 mg eq./kg", "value": "1775 nM/ (mg/kg)"}, {"measurement": "AUCnorm", "setting": "rat brain, PO 10.0 mg eq./kg", "value": "25620 (nM hr/kg) /(kg/mg)"}, {"measurement": "Observed CmaxNorm", "setting": "rat brain, PO 10.0 mg eq./kg", "value": "2543 nM/ (mg/kg)"}, {"measurement": "AUCnorm", "setting": "rat brain, SC 1.0 mg eq./kg", "value": "52980 (nM hr/kg) /(kg/mg)"}, {"measurement": "Observed CmaxNorm", "setting": "rat brain, SC 1.0 mg eq./kg", "value": "10620 nM/ (mg/kg)"}, {"measurement": "AUCnorm", "setting": "rat brain, SC 10.0 mg eq./kg", "value": "44160 (nM hr/kg) /(kg/mg)"}, {"measurement": "Observed CmaxNorm", "setting": "rat brain, SC 10.0 mg eq./kg", "value": "7544 nM/ (mg/kg)"}, {"measurement": "AUC0-∞ increase, fold more than dose proportional", "setting": "[1]", "value": 1.5, "unit": "fold"}, {"measurement": "Cmax increase, fold more than dose proportional", "setting": "[1]", "value": "~ 1.5 fold"}, {"measurement": "Cmax and AUC0-∞ increase relative to dose proportional", "setting": "rat brain, sc dose increase from 1 to 10 mg/kg, slightly less than dose proportional", "value": "0.7-0.8 fold"}, {"measurement": "AUCnorm", "setting": "rat plasma, IV 1.22 mg eq./kg", "value": "1342 (nM hr/kg) /(kg/mg)"}, {"measurement": "AUCnorm", "setting": "rat plasma, PO 1.22 mg eq./kg", "value": "486.9 (nM hr/kg) /(kg/mg)"}, {"measurement": "Observed CmaxNorm", "setting": "rat plasma, PO 1.22 mg eq./kg", "value": "89.07 nM/ (mg/kg)"}, {"measurement": "AUCnorm", "setting": "rat plasma, PO 10.0 mg eq./kg", "value": "1139 (nM hr/kg) /(kg/mg)"}, {"measurement": "Observed CmaxNorm", "setting": "rat plasma, PO 10.0 mg eq./kg", "value": "369.6 nM/ (mg/kg)"}, {"measurement": "AUCnorm", "setting": "rat plasma, SC 1.0 mg eq./kg", "value": "1686 (nM hr/kg) /(kg/mg)"}, {"measurement": "Observed CmaxNorm", "setting": "rat plasma, SC 1.0 mg eq./kg", "value": "985.0 nM/ (mg/kg)"}, {"measurement": "AUCnorm", "setting": "rat plasma, SC 10.0 mg eq./kg", "value": "2581 (nM hr/kg) /(kg/mg)"}, {"measurement": "Observed CmaxNorm", "setting": "rat plasma, SC 10.0 mg eq./kg", "value": "618.9 nM/ (mg/kg)"}, {"measurement": "AUC0-∞ increase, fold more than dose proportional", "setting": "[2]", "value": 2.3, "unit": "fold"}, {"measurement": "Cmax increase, fold more than dose proportional", "setting": "[2]", "value": "~ 4 fold"}, {"measurement": "AUC0-∞ increase, fold more than dose proportional", "setting": "rat plasma, sc dose increase from 1 to 10 mg/kg", "value": 1.5, "unit": "fold"}, {"measurement": "elimination half-life", "setting": "rat, all dose routes and levels (plasma; b142 also brain)", "value": "< 4", "unit": "h"}, {"measurement": "C max/ C min ratio", "setting": "rat, dose 10 mg/kg", "value": 123}, {"measurement": "delay in Tmax for brain compared to plasma", "setting": "rat, same dose level and route", "value": "0.25 to 1.5", "unit": "h"}, {"measurement": "Contribution of active transport to clearance", "setting": "rodent (rat)", "value": "> 100", "unit": "%"}, {"measurement": "brain elimination half-lives after extravascular administrations", "setting": "summary for rats and mice, rat", "value": "2.28 – 3.8"}]}]}
